Experimental findings from patent US9441000B2, “Use of metallocene compounds for cancer treatment” (Chevron Phillips Chemical Company LP, priority 2011, dated 2016) are described below.

Where only a bound is given, the exact number is not on record here.

What all share (format): cell-based
Assay [1] deals with T-24 chemoresistant urinary bladder cancer cells. The assay is described as follows: CellTiter-Blue viability assay, T-24. The settings on record: 96 hr treatment, approximately 5,000 T-24 cells. Here is the method:
(§1) Examples 18-22 were prepared and tested as follows. Approximately 5,000 A549 cells (University of Texas M.D. Anderson Cancer Center) growing in RPMI 1640 were plated in each 96-well overnight before adding the test compounds for 96 hr of treatment. Final concentrations achieved in the wells were 0, 0.8, 1.6, 3.1, 6.2, 12.5, 25, 50, 100, and 200 μM. All of the test compounds were reconstituted in DMSO just before the treatment. […] After 96 hr, the medium was refreshed. Approximately 10 μL of CellTiter-Blue® (Promega) was added to 100 μL of medium in each well and incubated at 37° C. for >4 hours. The plates were scanned using a SpectraMax M2 model microplate reader to measure the absorbance. CellTiter-Blue contains dark blue resazurin. Viable cells are able to convert non-fluorescent resazurin to its fluorescent product, resorufin. […] Reduction of resazurin to resorufin also involves a shift of the absorbance maximum from 605 nm to 573 nm, so viability can also be estimated using absorbance. Results were normalized to untreated controls to determine the percent reduction in viability. Graphs were generated using GraphPad Prism (GraphPad Software, Inc).
Examples 46-49 were prepared and tested using substantially the same procedure as described in Examples 18-22, except that approximately 5,000 T-24 urinary bladder cancer cells (American Type Culture Collection) were used. […]

Assay [2] deals with A2780 (ovarian cancer) cell line. The assay is described as follows: Sulforhodamine-B (SRB) microculture colorimetric cytotoxicity assay, A2780. The settings on record: 96 hr treatment, A2780 ovarian cancer cells, read-out: IC50 ± SD, A2780. Here is the method:
(§2) Drug solutions of CPH-1, CPH-2 and CPH-3 were made in dimethyl sulfoxide (DMSO, Sigma Aldrich) at a concentration of 20 mM, filtered through a Millipore filter, 0.22 μm, before use, and diluted by nutrient medium to various working concentrations. The nutrient medium was RPMI-1640 (PAA Laboratories) supplemented with 10% fetal bovine serum (Biochrom AG) and penicillin/streptomycin (PAA Laboratories). […]
(§3) The cytotoxic activities of CPH-1, CPH-2 and CPH-3 were evaluated using a sulforhodamine-B (SRB, Sigma Aldrich) microculture colorimetric assay, as described in Skehan et al., J. Natl. Cancer I. 82 (1990) 1107-1112, the disclosure of which is incorporated herein by reference in its entirety. […] The percentages of surviving cells relative to untreated controls were determined 96 hr after the beginning of drug exposure. […] After dyeing, the plates were again washed to remove the dye with 1% acetic acid and allowed to air dry overnight, 100 μL of 10 mM Tris base solutions were added to each well of the plate, and absorbance was measured at 570 nm using a 96 well plate reader (Tecan Spectra, Crailsheim, Germany). […]

The test system of assay [3] is A549 lung carcinoma cell line. The assay is described as follows: CellTiter-Blue viability assay, A549 (Examples 18-22). The conditions noted are these: 96 hr treatment, approximately 5,000 A549 cells per well. Here is the method:
as §1

For assay [4], the system named is A2780 ovarian cancer cells. The assay is described as follows: CellTiter-Blue viability assay, A2780, approximately 2,000 cells (Examples 23-27). The settings on record: 96 hr treatment, approximately 2,000 A2780 cells. The procedure: as §1
Examples 23-27 were prepared and tested using substantially the same procedure as described in Examples 18-22, except that approximately 2,000 A2780 ovarian cancer cells (University of Texas M.D. Anderson Cancer Center) were used. […]

The subject of assay [5] is SKOV-3 chemoresistant ovarian cancer cells. The assay is described as follows: CellTiter-Blue viability assay, SKOV-3. The settings on record: 96 hr treatment, approximately 5,000 SKOV-3 cells. The procedure: as §1
Examples 34-37 were prepared and tested using substantially the same procedure as described in Examples 18-22, except that approximately 5,000 SKOV-3 ovarian cancer cells (American Type Culture Collection) were used. […]

The subject of assay [6] is A253 (head and neck tumor) cell line. The assay is described as follows: Sulforhodamine-B (SRB) microculture colorimetric cytotoxicity assay, A253. The settings on record: 96 hr treatment, A253 head and neck tumor cells, read-out: IC50 ± SD, A253. Here is the method: as §2, §3
For assay [7], the system named is A549 (lung carcinoma) cell line. The assay is described as follows: Sulforhodamine-B (SRB) microculture colorimetric cytotoxicity assay, A549. The settings on record: 96 hr treatment, A549 lung carcinoma cells, read-out: IC50 ± SD, A549. The procedure:
as §2, §3

The test system of assay [8] is MeWo chemoresistant melanoma cancer cells. The assay is described as follows: CellTiter-Blue viability assay, MeWo. The conditions noted are these: Homo sapiens, 96 hr treatment, approximately 5,000 MeWo cells. The procedure:
as §1
Examples 50-53 were prepared and tested using substantially the same procedure as described in Examples 18-22, except that approximately 5,000 MeWo melanoma cancer cells (University of Texas M.D. Anderson Cancer Center) were used. […]

Assay [9] concerns NCI-Adr-Res chemoresistant ovarian cancer cells. The assay is described as follows: CellTiter-Blue viability assay, NCI-Adr-Res. The conditions noted are these: Homo sapiens, 96 hr treatment, approximately 5,000 NCI-Adr-Res cells. The procedure: as §1
Examples 42-45 were prepared and tested using substantially the same procedure as described in Examples 18-22, except that approximately 5,000 NCI-Adr-Res ovarian cancer cells (National Cancer Institute) were used. […]

Assay [10] concerns Hey-A8 MDR chemoresistant ovarian cancer cells. The assay is described as follows: CellTiter-Blue viability assay, Hey-A8 MDR. The settings on record: HeyA8-MDR, 96 hr treatment, approximately 5,000 Hey-A8 MDR cells. The procedure: as §1
Examples 38-41 were prepared and tested using substantially the same procedure as described in Examples 18-22, except that approximately 5,000 Hey-A8 MDR ovarian cancer cells (University of Texas M.D. Anderson Cancer Center) were used. […]

In the case of `N.N.[Cl][Pt][Cl]` [Cisplatin, cisplatin, reference compound], the IC50 in assay [1] was over 200 µM; in assay [2], 0.55 ± 0.03 µM; in assay [3], 82.7 µM; in assay [4] it was 35.4 µM; in assay [5], 12.8 µM; in assay [6], 0.81 ± 0.02 µM. Further, the IC50 in [7] was found to be 1.51 ± 0.02 µM.

On to `CN(C)/N=N/c1[nH]cnc1C(N)=O` [Dacarbazine, dacarbazine, reference compound], for which the half-inhibitory concentration (IC50) in [8] worked out at 7.9 µM.

Compound `COc1cccc2c1C(=O)c1c(O)c3c(c(O)c1C2=O)C[C@@](O)(C(=O)CO)C[C@@H]3O[C@H]1C[C@H](N)[C@H](O)[C@H](C)O1` [Doxorubicin, doxorubicin, reference compound] displayed an IC50 in assay [9] of 14.3 µM.

Compound `CC(=O)O[C@H]1C(=O)[C@@]2(C)[C@H]([C@H](OC(=O)c3ccccc3)[C@]3(O)C[C@H](OC(=O)[C@H](O)[C@@H](NC(=O)c4ccccc4)c4ccccc4)C(C)=C1C3(C)C)[C@]1(OC(C)=O)CO[C@@H]1C[C@@H]2O` [Paclitaxel, paclitaxel, reference compound] registered an IC50 in assay [10] of 0.03 µM.
